Structures are written as SMILES.

The values that follow come from patent publication US20260284018A1, “DUAL INHIBITORS OF DYRK1A AND 5-HT2 FOR TREATING A BRAIN DISORDER” (THE REGENTS OF THE UNIVERSITY OF CALIFORNIA, priority 2023, published 2026).

One test has as its target T1, CDK3 (Homo sapiens, UniProt Q00526).
T1 construct: purchased Eurofins DiscoverX
As to the kind of experiment: KINOMEscan scanEDGE. The format is binding. To be noted: read-out: Percent Control. In outline: (§1)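 Test compound is screened at 10 μM only, no dose-response, across 97 kinases. Each value gives remaining % activity relative to DMSO; lower indicates higher affinity.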

A further test has as its target T2, AURKA (Homo sapiens, UniProt O14965).
T2 construct: purchased Eurofins DiscoverX
Put plainly: KINOMEscan scanEDGE. The format is binding. To be noted: read-out: Percent Control. In outline:
as §1

For test [1], the target named is T3, EPHA2 (Homo sapiens, UniProt P29317).
T3 construct: purchased Eurofins DiscoverX
As to the kind of experiment: KINOMEscan scanEDGE. The format is binding. To be noted: read-out: Percent Control. In outline: as §1

The target of another test is T4, EGFR(L858R) (Homo sapiens, UniProt P00533, L858R).
T4 construct: purchased Eurofins DiscoverX
Put plainly: KINOMEscan scanEDGE. The format is binding. To be noted: read-out: Percent Control. In outline:
as §1

The target in another test is T5, PIM2 (Homo sapiens, UniProt Q9P1W9).
T5 construct: purchased Eurofins DiscoverX (KINOMEscan scanEDGE service)
As to the kind of experiment: KINOMEscan scanEDGE. The format is binding. The note with it: read-out: Percent Control. The essentials: as §1

Another test concerns the target T6, RET (Homo sapiens, UniProt P07949).
T6 construct: purchased Eurofins DiscoverX KINOMEscan scanEDGE
Put plainly: KINOMEscan scanEDGE. The format is binding. The note with it: read-out: Percent Control. The essentials:
as §1

In another test the target is T7, FGFR3 (Homo sapiens, UniProt P22607).
T7 construct: purchased Eurofins DiscoverX
Put plainly: KINOMEscan scanEDGE. The format is binding. To be noted: read-out: Percent Control. The essentials: as §1

In another test the target is T8, PCTK1 (Homo sapiens, UniProt Q00536).
T8 construct: purchased Eurofins DiscoverX (KINOMEscan scanEDGE service)
As to the kind of experiment: KINOMEscan scanEDGE. The format is binding. The note with it: read-out: Percent Control. In outline: as §1

Another test addresses T9, CSF1R (Homo sapiens, UniProt P07333).
T9 construct: purchased Eurofins DiscoverX
As to the kind of experiment: KINOMEscan scanEDGE. The format is binding. The note with it: read-out: Percent Control. In outline: as §1

The target of a further test is T10, MEK2 (Homo sapiens, UniProt P36507).
T10 construct: purchased Eurofins DiscoverX (KINOMEscan scanEDGE service)
As to the kind of experiment: KINOMEscan scanEDGE. The format is binding. To be noted: read-out: Percent Control. In outline: as §1

For the next test, the target named is T11, TSSK1B (Homo sapiens, UniProt Q9BXA7).
T11 construct: purchased Eurofins DiscoverX KINOMEscan scanEDGE
As to the kind of experiment: KINOMEscan scanEDGE. To be noted: read-out: Percent Control. The format is binding. In outline:
as §1

For a further test, the target named is T12, JNK3 (Homo sapiens, UniProt P53779).
T12 construct: purchased Eurofins DiscoverX
As to the kind of experiment: KINOMEscan scanEDGE. The format is binding. The note with it: read-out: Percent Control. In outline: as §1

The target in a further test is T13, ERBB4 (Homo sapiens, UniProt Q15303).
T13 construct: purchased Eurofins DiscoverX
Put plainly: KINOMEscan scanEDGE. The format is binding. To be noted: read-out: Percent Control. The essentials:
as §1

Test [2] addresses T14, TYK2(JH1domain-catalytic) (Homo sapiens, UniProt P29597).
T14 construct: TYK2(JH1domain-catalytic); purchased Eurofins DiscoverX KINOMEscan scanEDGE
Put plainly: KINOMEscan scanEDGE. The format is binding. To be noted: read-out: Percent Control. In outline:
as §1

For the next test, the system named is cortical neurons. As to the kind of experiment: Spinogenesis. To be noted: cortical neurons (DIV15), 10 μM, 24 h. The format is cell-based, rat. The procedure:
(A) Representative images of cortical neurons (DIV15) treated with compounds (10 μM) for 24 h. (B) Quantification of dendritic spine density (n=29-55 neurons per treatment condition). Data are represented as mean±SEM. *p<0.05, **p<0.01, ***p<0.001, ****p<0.0001, as compared to the vehicle control following a one-way ANOVA with Dunnett's post hoc test. VEH=vehicle (0.2% DMSO).
Spinogenesis. Spinogenesis experiments were performed as previously described with the exception that cells were treated at DIV14 and fixed 24 h after treatment on DIV15. The images were taken on a Nikon HCA confocal microscope with a 100×/NA 1.45 oil objective. Experiments were performed in duplicate with plates prepared using neurons obtained from independent pregnant dams. Images were analyzed by an experimenter blinded to the treatment conditions.

The next test deals with T15, PKAC-alpha (Homo sapiens, UniProt P17612).
T15 construct: purchased Eurofins DiscoverX KINOMEscan scanEDGE
To be noted: 10 μM; cited from earlier work.

Another test has as its target T16, EGFR (Homo sapiens, UniProt P00533).
T16 construct: purchased Eurofins DiscoverX
The note with it: 10 μM; cited from earlier work.

For a further test, the target named is T17, IKK-alpha (Homo sapiens, UniProt O15111).
T17 construct: purchased Eurofins DiscoverX
The note with it: 10 μM; cited from earlier work.

The target in a further test is T18, RAF1 (Homo sapiens, UniProt P04049).
T18 construct: purchased Eurofins DiscoverX KINOMEscan scanEDGE
To be noted: 10 μM; cited from earlier work.

Test [3] deals with T3, EPHA2. The note with it: 10 μM; cited from earlier work.
The next test has as its target T19, PAK2 (Homo sapiens, UniProt Q13177).
T19 construct: purchased Eurofins DiscoverX (KINOMEscan scanEDGE service)
To be noted: 10 μM; cited from earlier work.

The target of the next test is T20, JNK1 (Homo sapiens, UniProt P45983).
T20 construct: purchased Eurofins DiscoverX
The note with it: 10 μM; cited from earlier work.

For another test, the target named is T21, ZAP70 (Homo sapiens, UniProt P43403).
T21 construct: purchased Eurofins DiscoverX KINOMEscan scanEDGE
The note with it: 10 μM; cited from earlier work.

The next test addresses T22, AKT2 (Homo sapiens, UniProt P31751).
T22 construct: purchased Eurofins DiscoverX
The note with it: 10 μM; cited from earlier work.

Another test has as its target T23, ABL1-nonphosphorylated (Homo sapiens, UniProt P00519).
T23 construct: purchased Eurofins DiscoverX
To be noted: 10 μM; cited from earlier work.

Another test has as its target T24, BMPR2 (Homo sapiens, UniProt Q13873).
T24 construct: purchased Eurofins DiscoverX
To be noted: 10 μM; cited from earlier work.

Another test has as its target T25, SRC (Homo sapiens, UniProt P12931).
T25 construct: purchased Eurofins DiscoverX KINOMEscan scanEDGE
To be noted: 10 μM; cited from earlier work.

T3 sequence (P29317 24-976): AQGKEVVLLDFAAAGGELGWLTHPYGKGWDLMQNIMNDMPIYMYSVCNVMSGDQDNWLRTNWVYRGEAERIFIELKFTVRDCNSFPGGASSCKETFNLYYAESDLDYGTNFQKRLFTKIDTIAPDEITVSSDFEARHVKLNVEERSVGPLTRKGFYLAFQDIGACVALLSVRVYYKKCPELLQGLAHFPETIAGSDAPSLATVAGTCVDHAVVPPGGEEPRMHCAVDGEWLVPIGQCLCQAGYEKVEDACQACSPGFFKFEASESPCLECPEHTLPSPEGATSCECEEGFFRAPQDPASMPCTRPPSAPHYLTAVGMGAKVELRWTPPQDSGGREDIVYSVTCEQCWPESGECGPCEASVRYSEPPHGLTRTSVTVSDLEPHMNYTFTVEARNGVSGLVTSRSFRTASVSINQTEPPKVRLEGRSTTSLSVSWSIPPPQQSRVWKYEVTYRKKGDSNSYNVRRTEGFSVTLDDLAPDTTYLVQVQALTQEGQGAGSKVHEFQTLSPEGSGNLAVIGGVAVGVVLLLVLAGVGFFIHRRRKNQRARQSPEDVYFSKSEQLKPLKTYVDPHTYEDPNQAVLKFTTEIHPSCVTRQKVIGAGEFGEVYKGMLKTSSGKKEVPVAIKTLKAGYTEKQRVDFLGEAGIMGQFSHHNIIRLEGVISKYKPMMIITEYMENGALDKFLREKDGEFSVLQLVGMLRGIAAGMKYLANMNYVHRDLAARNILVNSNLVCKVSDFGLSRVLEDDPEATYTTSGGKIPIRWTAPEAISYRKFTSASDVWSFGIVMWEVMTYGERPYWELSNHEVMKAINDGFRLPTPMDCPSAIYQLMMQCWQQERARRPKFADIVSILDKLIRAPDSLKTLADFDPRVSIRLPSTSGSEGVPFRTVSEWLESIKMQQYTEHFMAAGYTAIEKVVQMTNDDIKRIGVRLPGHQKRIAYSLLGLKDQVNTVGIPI
T13 sequence (Q15303 26-1308): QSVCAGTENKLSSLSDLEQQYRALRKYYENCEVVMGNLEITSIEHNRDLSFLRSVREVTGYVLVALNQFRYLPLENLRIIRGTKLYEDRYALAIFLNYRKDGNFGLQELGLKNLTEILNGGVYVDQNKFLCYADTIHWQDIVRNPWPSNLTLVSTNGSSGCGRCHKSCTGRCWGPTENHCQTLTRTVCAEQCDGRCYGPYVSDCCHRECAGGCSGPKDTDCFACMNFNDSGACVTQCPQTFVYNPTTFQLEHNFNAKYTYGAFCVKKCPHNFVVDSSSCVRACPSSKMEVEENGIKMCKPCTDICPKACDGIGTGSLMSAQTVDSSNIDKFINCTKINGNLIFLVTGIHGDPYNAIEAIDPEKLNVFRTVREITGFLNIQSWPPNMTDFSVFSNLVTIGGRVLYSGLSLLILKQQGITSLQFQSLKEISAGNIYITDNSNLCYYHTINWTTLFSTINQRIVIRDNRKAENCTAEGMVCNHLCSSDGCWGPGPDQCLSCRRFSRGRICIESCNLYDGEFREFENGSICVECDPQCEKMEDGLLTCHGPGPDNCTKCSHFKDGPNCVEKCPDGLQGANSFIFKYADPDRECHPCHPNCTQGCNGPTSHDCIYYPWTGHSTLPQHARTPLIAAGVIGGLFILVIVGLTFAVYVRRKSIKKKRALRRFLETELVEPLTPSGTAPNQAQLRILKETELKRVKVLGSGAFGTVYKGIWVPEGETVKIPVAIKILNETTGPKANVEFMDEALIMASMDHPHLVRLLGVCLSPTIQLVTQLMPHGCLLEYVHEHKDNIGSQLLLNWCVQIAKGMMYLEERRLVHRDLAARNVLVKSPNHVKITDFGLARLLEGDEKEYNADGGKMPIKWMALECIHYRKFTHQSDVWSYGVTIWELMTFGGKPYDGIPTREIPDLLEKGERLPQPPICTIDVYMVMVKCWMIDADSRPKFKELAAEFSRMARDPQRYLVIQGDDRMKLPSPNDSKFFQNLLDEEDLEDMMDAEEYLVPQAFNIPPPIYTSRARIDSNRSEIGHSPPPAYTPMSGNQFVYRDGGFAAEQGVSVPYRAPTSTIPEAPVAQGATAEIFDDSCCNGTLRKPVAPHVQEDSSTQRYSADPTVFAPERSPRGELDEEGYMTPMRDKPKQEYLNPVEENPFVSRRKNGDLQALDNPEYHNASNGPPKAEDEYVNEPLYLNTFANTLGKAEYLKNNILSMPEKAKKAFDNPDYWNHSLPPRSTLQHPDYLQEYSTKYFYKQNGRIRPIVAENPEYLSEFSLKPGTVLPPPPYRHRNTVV
T25 sequence (P12931 whole entry): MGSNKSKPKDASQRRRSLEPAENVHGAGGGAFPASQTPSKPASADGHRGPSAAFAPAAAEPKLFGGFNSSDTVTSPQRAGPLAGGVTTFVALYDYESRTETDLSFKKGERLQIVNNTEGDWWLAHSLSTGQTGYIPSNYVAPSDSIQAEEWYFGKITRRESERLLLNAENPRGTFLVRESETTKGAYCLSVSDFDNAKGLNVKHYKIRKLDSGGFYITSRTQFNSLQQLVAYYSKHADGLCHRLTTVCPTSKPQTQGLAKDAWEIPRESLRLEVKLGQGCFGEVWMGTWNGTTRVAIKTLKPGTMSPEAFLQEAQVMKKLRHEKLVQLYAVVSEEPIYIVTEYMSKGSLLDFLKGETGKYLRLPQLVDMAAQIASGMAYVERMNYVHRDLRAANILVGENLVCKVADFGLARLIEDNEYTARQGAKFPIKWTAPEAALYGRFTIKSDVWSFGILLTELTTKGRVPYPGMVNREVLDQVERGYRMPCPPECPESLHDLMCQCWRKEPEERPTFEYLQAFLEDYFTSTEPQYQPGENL
T17 sequence (O15111 whole entry): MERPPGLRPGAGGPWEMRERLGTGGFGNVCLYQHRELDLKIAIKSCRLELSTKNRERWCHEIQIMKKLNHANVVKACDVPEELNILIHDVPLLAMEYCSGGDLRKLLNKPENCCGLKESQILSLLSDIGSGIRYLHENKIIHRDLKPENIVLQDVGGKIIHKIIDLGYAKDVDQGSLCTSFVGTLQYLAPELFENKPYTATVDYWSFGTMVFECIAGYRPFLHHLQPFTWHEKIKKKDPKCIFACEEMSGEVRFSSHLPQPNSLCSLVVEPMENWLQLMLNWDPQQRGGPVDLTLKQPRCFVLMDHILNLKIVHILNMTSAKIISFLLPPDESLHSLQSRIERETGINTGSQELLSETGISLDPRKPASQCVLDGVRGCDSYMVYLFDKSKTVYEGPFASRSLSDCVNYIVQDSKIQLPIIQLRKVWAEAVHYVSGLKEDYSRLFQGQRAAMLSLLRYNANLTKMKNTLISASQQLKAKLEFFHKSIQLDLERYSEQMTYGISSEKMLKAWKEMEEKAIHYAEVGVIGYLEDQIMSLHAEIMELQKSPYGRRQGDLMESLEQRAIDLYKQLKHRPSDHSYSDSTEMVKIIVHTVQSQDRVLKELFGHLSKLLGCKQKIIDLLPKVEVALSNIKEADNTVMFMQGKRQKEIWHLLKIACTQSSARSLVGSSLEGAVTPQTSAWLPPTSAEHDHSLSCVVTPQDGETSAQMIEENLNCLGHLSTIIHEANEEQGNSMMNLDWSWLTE
T19 sequence (Q13177 whole entry): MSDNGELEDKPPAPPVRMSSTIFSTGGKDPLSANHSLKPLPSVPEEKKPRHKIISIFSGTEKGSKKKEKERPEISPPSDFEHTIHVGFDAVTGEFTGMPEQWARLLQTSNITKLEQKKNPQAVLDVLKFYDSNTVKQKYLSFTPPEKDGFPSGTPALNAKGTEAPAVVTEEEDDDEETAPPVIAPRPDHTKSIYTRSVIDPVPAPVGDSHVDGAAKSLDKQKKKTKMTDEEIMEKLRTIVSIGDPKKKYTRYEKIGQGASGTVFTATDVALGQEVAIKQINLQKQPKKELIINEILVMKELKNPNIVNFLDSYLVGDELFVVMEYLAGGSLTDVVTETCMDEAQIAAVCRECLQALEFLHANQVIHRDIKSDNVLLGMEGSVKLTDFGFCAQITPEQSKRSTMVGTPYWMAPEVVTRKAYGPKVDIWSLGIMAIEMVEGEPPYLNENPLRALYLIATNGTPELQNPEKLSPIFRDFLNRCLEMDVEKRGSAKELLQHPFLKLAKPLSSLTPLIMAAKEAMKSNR
T18 sequence (P04049 whole entry): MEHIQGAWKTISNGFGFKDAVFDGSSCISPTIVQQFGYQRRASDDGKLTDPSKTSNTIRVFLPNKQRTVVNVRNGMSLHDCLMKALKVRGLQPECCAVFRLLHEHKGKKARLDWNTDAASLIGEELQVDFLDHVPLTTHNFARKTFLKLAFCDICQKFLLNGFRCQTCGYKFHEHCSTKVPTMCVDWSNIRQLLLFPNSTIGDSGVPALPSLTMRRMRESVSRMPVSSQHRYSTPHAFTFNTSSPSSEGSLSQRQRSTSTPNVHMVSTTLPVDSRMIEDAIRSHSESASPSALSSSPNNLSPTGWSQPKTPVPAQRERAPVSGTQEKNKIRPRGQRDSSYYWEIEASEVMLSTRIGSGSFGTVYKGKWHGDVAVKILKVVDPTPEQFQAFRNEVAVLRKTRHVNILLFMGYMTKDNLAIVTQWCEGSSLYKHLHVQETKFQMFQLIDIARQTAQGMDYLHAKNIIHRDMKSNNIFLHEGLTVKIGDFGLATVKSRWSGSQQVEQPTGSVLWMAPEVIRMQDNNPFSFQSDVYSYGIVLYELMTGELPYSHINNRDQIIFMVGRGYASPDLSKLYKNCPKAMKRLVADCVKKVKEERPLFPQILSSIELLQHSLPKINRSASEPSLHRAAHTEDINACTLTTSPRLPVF
T1 sequence (Q00526 whole entry): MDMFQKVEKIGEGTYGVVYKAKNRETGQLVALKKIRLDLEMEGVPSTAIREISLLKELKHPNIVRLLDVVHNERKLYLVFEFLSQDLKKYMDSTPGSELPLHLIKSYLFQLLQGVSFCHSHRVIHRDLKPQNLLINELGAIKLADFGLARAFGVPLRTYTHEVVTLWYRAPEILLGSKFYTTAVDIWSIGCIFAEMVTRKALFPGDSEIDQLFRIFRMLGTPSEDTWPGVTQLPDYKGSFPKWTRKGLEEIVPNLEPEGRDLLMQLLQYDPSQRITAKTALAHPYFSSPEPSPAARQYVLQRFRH

Take `COc1ccc2c3ccnc(C)c3n(CCN(C)C)c2c1.O=C(O)/C=C/C(=O)O` [HTW_A_8 fumarate, 2-(7-methoxy-1-methyl-9H-pyrido[3,4-b]indol-9-yl)-N,N-dimethylethan-1-amine Fumarate Salt (2:3)]: the remaining binding at 10 µM at CDK3 came out at 91%; at AURKA, 100%; at EPHA2 [1] it was 88%; at EGFR(L858R) it was 87%; at PIM2 it was 84%; on RET it was 95%. The remaining binding at 10 µM stood at 95% at FGFR3; 96% at PCTK1; 98% on CSF1R; 82% at MEK2; 100% on TSSK1B; 91% on JNK3. Moreover, the remaining binding at 10 µM on ERBB4 worked out at 100%; in [2] it was 97%. In addition, the dendritic spine density result in the test with cortical neurons is recorded as “significantly increases dendritic spine density”.
As to `COc1ccc2c(c1)[nH]c1c(C)nccc12` [Harmine, harmine], the “Percent Control” value at PKAC-alpha is reported as 88%; at EGFR it was 96%; at IKK-alpha, 81%; on RAF1 it was 89%; at EPHA2 [3] it was 93%; on PAK2, 47%. For the same molecule, the “Percent Control” value is given as 41% on JNK1; 92% on ZAP70; 80% at AKT2; 90% at ABL1-nonphosphorylated; 96% on BMPR2; 90% on SRC.
